Data: patent publication US20210128735A1, “BIOCOMPATIBLE COPOLYMER CONTAINING MULTIPLE ACTIVE AGENT MOLECULES” (priority 2018, published 2021)
Like-named read-outs stand apart in the source and are kept apart here.

Test system: HepG2 cells
Assay: Exploratory toxicity: eight cell health parameters (CHP) by automated fluorescent cellular imaging (ArrayScan)
Assay type: cell-based
Settings: for MTD (row Cell count): concentration at which <20% cell loss was observed; for AC50: Homo sapiens
Procedure: The polymeric carriers of this disclosure are not biodegradable. […] An exploratory toxicity study of a polymeric carrier of the present disclosure (without payload) was performed. Briefly, HepG2 cells were plated on 96-well black walled, clear bottomed polystyrene plates at 100 μL per well. Test compound was a H2N-G3-Cellophil copolymer (12 kDa) containing DMA and AK (90/10 mol %) that was prepared by the procedure described in example 13, step 7. The HepG2 cells were dosed with test compound at concentrations from 0.04 to 100 μM. At the end of 72-h incubation at 37° C., appropriate dies or antibodies were added to the cultures. The plates were then scanned using an automated fluorescent cellular imager (ArrayScan®, Thermo Scientific Cellomics).
The following eight cell health parameters (CHP) were evaluated:
Cell count: A decreasing number of cells per well indicates toxicity due to necrosis, apoptosis or a reduction in cellular proliferation. Nuclear size: An increase in nuclear area can indicate necrosis or G2 cell cycle arrest, and a decrease can indicate apoptosis. DNA structure: An increase in DNA structure can indicate chromosomal instability and DNA fragmentation. Mitochondrial mass: A decrease in mitochondrial mass indicates loss of total mitochondria and an increase implies mitochondrial swelling or an adaptive response to cellular energy demands. Mitochondrial membrane potential (Δψm): A decrease indicates a loss of mitochondrial integrity, typically resulting in apoptotic signaling; an increase in mitochondrial membrane potential indicates an adaptive response to cellular energy demands. Oxidative stress: An increase in reactive oxygen species (ROS) is an early cytotoxic response. Glutathione content: A decrease in glutathione (GSH) content can result from production of ROS or from direct binding to tested compound. An increase in GSH content represents an adaptive cellular response to oxidative stress. Cellular ATP: After cell lysis, ATP is released from the cell. Cells which are not metabolically active will not release any ATP. Therefore, a decrease in metabolically active cells will result in a decrease in the level of ATP detected.

[1] = HepG2, 72-h incubation, NR = no response

Row | SMILES | MEC, Cell count (HepG2, 72-h incubation at 37° C., 0.04 to 100 μM, MEC = lowest dose at which an effect is detected, NR = no response) | MEC, Cellular ATP [1] | MEC, Nuclear size [1] | MEC, Oxidative stress [1] | MEC, DNA structure (HepG2, 72-h incubation, NR = no response, NS = not statistical significant) | MTD (row Cell count) [1] | AC50 (HepG2, 72-h incubation, NR = no response, NS = not statistical significant, read-out: AC50, DNA structure) | AC50 (HepG2, 72-h incubation, NR = no response, read-out: AC50, Cellular ATP) | AC50 (HepG2, 72-h incubation, NR = no response, read-out: AC50, Glutathione content) | AC50 (HepG2, 72-h incubation, NR = no response, read-out: AC50, Mitochondrial mass) | AC50 (HepG2, 72-h incubation, NR = no response, read-out: AC50, Mitochondrial membrane potential) | AC50 (HepG2, 72-h incubation, NR = no response, read-out: AC50, Nuclear size) | AC50 (HepG2, 72-h incubation, NR = no response, read-out: AC50, Oxidative stress) | AC50 (HepG2, 72-h incubation, concentration at which 50% of the maximum effect is observed, NR = no response, read-out: AC50, Cell count) | MEC, Cellular ATP | MEC, Glutathione content
1 | N#CC(C#N)=NNc1cccc(Cl)c1 [control 1, carbonyl cyanide 3-chlorophenylhydrazone] | 1.73 µM | 3.13 µM | 3.76 µM | 0.539 µM | 0.63 µM | 2 µM | 46.7 µM | 4.15 µM | > 100 µM | > 100 µM | > 100 µM | 8.09 µM | 22.4 µM | 2.54 µM |  | 
2 | CCCCS(=N)(=O)CCC(N)C(=O)O [control 2, L-buthionine-sulfoximine] |  |  |  |  |  | 40 µM |  |  |  |  |  |  |  |  | 14.4 µM | 1.7 µM
